“Also recorded” adds a separate entry of the source.
Columns and labels:
Assay type in all cases: in vivo, human cells in mice
[1] = tested on: A2058 human melanoma cells; test: A2058 melanoma xenograft in CD-1 nude mice, combination with DTIC (1.6); conditions: A2058 (melanoma), CD-1; SEQ ID NO:1 10 mg/kg i.v. every other day; DTIC 80 mg/kg i.v. days 6-10
Description: After 52 days the mice were sacrificed and the tumours weighed. […] Mitoxantrone was administered intravenously once at the beginning of the treatments at a dose of 2 mg/kg (FIG. 4A) or once a week for four weeks at a reduced dose of 0.8 mg/kg (FIG. 4B). All treatments were stopped at day 50 (FIG. 4A) or 48 (FIG. 4B), respectively. […] Mitoxantrone was administered intravenously once at the beginning of the treatments at a dose of 2 mg/kg (FIG. 5A) or once a week for four weeks at a reduced dose of 0.8 mg/kg (FIG. 5B). All treatments were stopped at day 42 (FIG. 5A) or 38 (FIG. 5B), respectively. […] A2058 is a metastatic melanoma cell line. […] All treatments were stopped at day 24. […] Taxol was administered intravenously once a week at a dose of 10 mg/kg for three (FIG. 7A) or four weeks (FIG. 7C). Doxorubicin was administered intravenously once a week at a dose of 5 mg/kg for first three weeks (FIG. 7A) or for two weeks (FIG. 7C). All treatments were stopped at day 33 (FIG. 7A) or at day 26 (FIG. 7C), respectively. […] In FIG. 7C, antitumour activities were estimated by the inhibition of tumour volume, which was measured with calipers. Each point represents mean tumour volume calculated from 10 animals per experimental group. […] Taxol was administered intravenously once a week for first three weeks and intraperitoneally once a week for next two weeks at a dose of 10 mg/kg. Cisplatin was administered intravenously once a week for first three weeks and intraperitoneally once a week for next two weeks at a dose of 4 mg/kg. All treatments were stopped at day 40. Antitumour activities were estimated by the inhibition of tumour volume, which was measured with caliper. Each point represents mean tumour volume calculated from 9 animals per experimental group.

[2] = tested on: BxPC-3 human pancreatic carcinoma cells; test: BxPC-3 gemcitabine resistant pancreatic carcinoma xenograft in CD-1 nude mice; conditions: Gemcitabine 100 mg/kg i.v. every three days
Description: BxPC-3 is a gemcitabine resistant call line. […] Gemcitabine was administered intravenously every three days at a dose of 100 mg/kg. Antitumour activities were estimated by the inhibition of tumour volume, which was measured with caliper. Each point represents mean tumour volume calculated from 10 animals per experimental group. […] Hela S3 is a hydroxyurea resistant cell line. […] Hydroxyurea was administered intraperitoneally every day at a dose of 250 mg/kg for 10 days. Cisplatin was administered intravenously once a week for three weeks at a dose of 4 mg/kg. Antitumour activities were estimated by the inhibition of tumour volume, which was measured with caliper. Each point represents mean tumour volume calculated from 10 animals per experimental group. […] Cisplatin was administered intravenously once a week for three weeks at a dose of 4 mg/kg. Taxol was administered intravenously once a week for three weeks at a dose of 10 mg/kg. Antitumour activities were estimated by the inhibition of tumour volume, which was measured with caliper. Each point represents mean tumour volume calculated from 10 animals per experimental group. […] Taxol was administered i.p. once a week at a dose of 10 mg/kg. Antitumour activities were estimated by the inhibition of tumour volume (FIG. 12A), which was measured with calipers. Each point represents mean tumour volume calculated from 10 animals per experimental group. Animals were sacrificed and tumour weights taken at the end of the study (FIG. 12C). […] Cisplatin was administered intravenously once a week for four weeks at a dose of 4 mg/kg. Taxol was administered intravenously once a week for four weeks at a dose of 20 mg/kg. Antitumour activities were estimated by the inhibition of tumour volume, which was measured with caliper. Each point represents mean tumour volume calculated from 9-10 animals per experimental group. […] Cisplatin was administered intravenously once a week for four weeks at a dose of 4 mg/kg. Antitumour activities were estimated by the inhibition of tumour volume, which was measured with caliper. Each point represents mean tumour volume calculated from 10 animals per experimental group. At the end of the study the animals were sacrificed and tumours weighed. […] Taxol was administered i.p. once a week at a dose of 10 mg/kg. Anti-tumour activity was estimated by the inhibition of tumour volume, which was measured with caliper. Each point represents mean tumour volume calculated from 10 animals per experimental group. […] Antitumour activities were estimated by the inhibition of tumour volume, which was measured with caliper. Each point represents mean tumour volume calculated from 10 animals per experimental group. Tumour weights were measured after animals were sacrificed at the end of the treatment. […]

[3] = tested on: A498 human kidney cancer cells; test: A498 kidney tumour xenograft in SCID mice, controls and chemotherapeutics (Example 7); conditions: oligonucleotides 10 mg/kg/2 days i.v., 5-FU 13 mg/kg/day×5, vinblastine 1 mg/kg/week, gemcitabine 100 mg/kg/week
From the text: CD-1 athymic female nude mice, BALB/c nu/nu nude mice, SCID, and SCID beige mice were purchased from Charles River Laboratories (Montreal, Canada) and experiments were typically initiated when the mice were 6-7 weeks old. […] Each experimental group typically contained 10 mice. After the size of tumour reached a mean tumour volume of 50-100 mm^3, treatment was initiated. […] Anti-tumour activity was estimated by the measurement of tumour volume with a calliper at two-three day intervals. Tumour volume was calculated by a formula L×W×H/2, where L indicates length, W indicates width and H indicates height. Within 24 hours after the last treatment, the animals were sacrificed and tumour and body weights were measured. Results of statistical analyses of the data are presented as P values in the figure legends.
Three additional treatment groups received: 5-FU (13 mg/kg/day×5), vinblastine (1 mg/kg/week) and gemcitabine (100 mg/kg/week). […] Caliper measurements at 1-week intervals were used to calculate tumour volumes. Each point in FIG. 28C represents mean tumour volume calculated from 10 animals per experimental group (with the exception of SEQ ID NO: 1 which was 8 animals). […] After 54 days the mice were sacrificed and the A498 tumours weighed. Each bar represents the mean tumour weight and standard error calculated for each treatment group.

[4] = tested on: PC-3 human prostatic cancer cells; test: PC-3 prostatic tumour xenograft in SCID mice, combination with mitoxantrone (1.4)
Description: (§1) After 52 days the mice were sacrificed and the tumours weighed. […] In both experiments, PC-3 human prostatic cancer cells (1×10^7 cells in 100 μl of PBS) were subcutaneously injected into the right flank of 6-7 weeks old male SCID mice. After the size of tumour reached an approximate volume of 50 mm^3, 14 days post tumour cell injection, SEQ ID NO: 1 was administered by bolus infusion into the tail vein every other day at 10 mg/kg 18 times (FIG. 4A) or 17 times (FIG. 4B), respectively. Control animals received saline alone for the same period. Antitumour effect of SEQ ID NO:1 was further compared to that of mitoxantrone (novantrone) alone or in combination. Mitoxantrone was administered intravenously once at the beginning of the treatments at a dose of 2 mg/kg (FIG. 4A) or once a week for four weeks at a reduced dose of 0.8 mg/kg (FIG. 4B). All treatments were stopped at day 50 (FIG. 4A) or 48 (FIG. 4B), respectively. A day after the last treatment, tumours were excised from the animals and their weights were measured. […] In both experiments, DU145 human prostatic cancer cells (1×10^7 cells in 100 μl of PBS) were subcutaneously injected into the right flank of 6-7 weeks old male SCID mice. After the size of tumour reached an approximate volume of 50 mm^3, 13 (FIG. 5A) or 11 (FIG. 5B) days post tumour cell injection, SEQ ID NO:1 was administered by bolus infusion into the tail vein every other day at 10 mg/kg 15 times (FIG. 5A) or 14 times (FIG. 5B), respectively. Control animals received saline alone for the same period. Antitumour effect of SEQ ID NO:1 was further compared to that of mitoxantrone (novantrone) alone or in combination. Mitoxantrone was administered intravenously once at the beginning of the treatments at a dose of 2 mg/kg (FIG. 5A) or once a week for four weeks at a reduced dose of 0.8 mg/kg (FIG. 5B). All treatments were stopped at day 42 (FIG. 5A) or 38 (FIG. 5B), respectively. A day after the last treatment, tumours were excised from the animals and their weights were measured.

[5] = tested on: DU145 human prostatic cancer cells; test: DU145 prostatic tumour xenograft in SCID mice, combination with mitoxantrone (1.5); conditions: for Tumour weight as % of saline control: DU145 (prostatic), SCID, SEQ ID NO:1 10 mg/kg i.v. every other day, mitoxantrone i.v.
Description: as §1

## CN(C)/N=N/c1[nH]cnc1C(N)=O [DTIC, dacarbazine, reference compound]
[1]
  Tumour weight as % of saline control: 68%

## Nc1ccn([C@@H]2O[C@H](CO)[C@@H](O)C2(F)F)c(=O)n1 [Gemcitabine, reference compound]
[2]; BxPC-3 (pancreatic), Gemcitabine resistant, CD-1, SEQ ID NO:1 10 mg/kg i.v. every other day 17 times
  Tumour weight as % of saline control: 83%
[2]; BxPC-3 gemcitabine resistant, CD-1 nude mice, SEQ ID NO:1 10 mg/kg i.v. every other day
  Antitumour effect (tumour volume, FIG. 9): ineffective against Gemcitabine-resistant tumour
[3]
  Effect on tumour growth (volume and weight): ineffective in stabilization of the tumours; also recorded: at best, a delay in the rate of tumour growth

## O=C1c2c(O)ccc(O)c2C(=O)c2c(NCCNCCO)ccc(NCCNCCO)c21 [Novantrone, mitoxantrone]
[4]; PC-3 (prostatic), SCID, SEQ ID NO:1 10 mg/kg i.v. every other day, mitoxantrone (novantrone) i.v., table does not say which of two experiments
  Tumour weight as % of saline control: 57%
[4]; PC-3, SCID mice, SEQ ID NO:1 10 mg/kg i.v. every other day 17 times, mitoxantrone 0.8 mg/kg i.v. once a week for four weeks
  Antitumour effect (tumour weight, FIG. 4B): significant delay of tumour growth
[5]; first of two printed values (two independent experiments)
  Tumour weight as % of saline control: 40%
[5]; second of two printed values (two independent experiments)
  Tumour weight as % of saline control: 60%
[5]; DU145, SCID mice, SEQ ID NO:1 10 mg/kg i.v. every other day 14 times, mitoxantrone 0.8 mg/kg i.v. once a week for four weeks
  Antitumour effect (tumour weight, FIG. 5B): significant delay of tumour growth
